Laboratory results published in the supplement of paper PMC10307832.

Tests used:
Experiment in all cases: relative viability (nuclei count vs DMSO), 5 days (fraction); higher = more cells survive
QS11 + Palbociclib = compound: C1CC2=C(C1)C=C(C=C2)OC3=NC(=C4C(=N3)N(C=N4)CC5=CC=C(C=C5)C6=CC=CC=C6)N[C@@H](CC7=CC=CC=C7)CO [QS11] + CC(=O)c1c(C)c2cnc(Nc3ccc(N4CCNCC4)cn3)nc2n(C2CCCC2)c1=O [Palbociclib] (partner 0.5 µM)
Method in brief: (§1)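 Cells from lung cancer lines were seeded into 1536-well plates and, one day later, dosed by pin tool. Treatments were either a single drug or a fixed dose of an anchor drug with five library-drug doses (not always all listed) in √10 steps. After 5 days, nuclei were stained in a one-step fixation (final 0.05% Triton X-100, 1% formaldehyde, 1 ug/ml Hoechst) and counted on 4× images, and relative viability is the treated-to-vehicle nuclei ratio, as the median of duplicate plates.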

QS11 + Dasatinib = compound: C1CC2=C(C1)C=C(C=C2)OC3=NC(=C4C(=N3)N(C=N4)CC5=CC=C(C=C5)C6=CC=CC=C6)N[C@@H](CC7=CC=CC=C7)CO [QS11] + Cc1nc(Nc2ncc(C(=O)Nc3c(C)cccc3Cl)s2)cc(N2CCN(CCO)CC2)n1 [Dasatinib] (partner 0.075 µM)
Method in brief: as §1

AZ628 + OSI-027 = compound: CC1=C(C=C(C=C1)NC(=O)C2=CC(=CC=C2)C(C)(C)C#N)NC3=CC4=C(C=C3)N=CN(C4=O)C [AZ628] + COc1cccc2cc(-c3nc([C@H]4CC[C@H](C(=O)O)CC4)n4ncnc(N)c34)[nH]c12 [OSI-027] (partner 0.5 µM)
Method in brief: as §1

AZ628 + AZD7762 = compound: CC1=C(C=C(C=C1)NC(=O)C2=CC(=CC=C2)C(C)(C)C#N)NC3=CC4=C(C=C3)N=CN(C4=O)C [AZ628] + NC(=O)Nc1cc(-c2cccc(F)c2)sc1C(=O)N[C@H]1CCCNC1 [AZD7762] (partner 0.2 µM)
Method in brief: as §1

Cell Line	relative viability (QS11 + Palbociclib; first compound 0.08 µM)	relative viability (QS11 + Palbociclib; first compound 0.253 µM)	relative viability (QS11 + Palbociclib; first compound 0.8 µM)	relative viability (QS11 + Palbociclib; first compound 2.53 µM)	relative viability (QS11 + Palbociclib; first compound 8 µM)	relative viability (QS11 + Dasatinib; first compound 0.08 µM)	relative viability (QS11 + Dasatinib; first compound 0.253 µM)	relative viability (QS11 + Dasatinib; first compound 0.8 µM)	relative viability (QS11 + Dasatinib; first compound 2.53 µM)	relative viability (QS11 + Dasatinib; first compound 8 µM)	relative viability (AZ628 + OSI-027; first compound 0.08 µM)	relative viability (AZ628 + OSI-027; first compound 0.253 µM)	relative viability (AZ628 + OSI-027; first compound 0.8 µM)	relative viability (AZ628 + OSI-027; first compound 2.53 µM)	relative viability (AZ628 + OSI-027; first compound 8 µM)	relative viability (AZ628 + AZD7762; first compound 0.08 µM)	relative viability (AZ628 + AZD7762; first compound 0.253 µM)	relative viability (AZ628 + AZD7762; first compound 0.8 µM)	relative viability (AZ628 + AZD7762; first compound 2.53 µM)	relative viability (AZ628 + AZD7762; first compound 8 µM)
201T	0.369	0.406	0.345	0.395	0.277	0.57	0.543	0.561	0.599	0.376	0.838	0.707	0.689	0.761	0.849	0.523	0.541	0.57	0.462	0.45
NCI-H650	0.328	0.34	0.304	0.286	0.327	0.424	0.428	0.497	0.4	0.352	0.664	0.687	0.766	0.689	0.678	1.14	1.24	1.37	1.14	0.691
PC-3 [JPC-3]		0.586	0.396	0.595	0.575	0.992	1.05	0.954	1.13	1.08	0.791	0.731	0.753	0.815	0.683	0.929	0.754	0.808	0.83	0.727
NCI-H1395	0.596	0.654	0.628	0.664	0.666	0.387	0.361	0.382	0.408	0.419	0.652	0.544	0.625	0.56	0.554	0.431	0.421	0.381	0.372	0.358
CAL-12T	0.431	0.568	0.409	0.499	0.264	0.4	0.365	0.466	0.368	0.334	0.891	0.572	0.408	0.345	0.267	0.806	0.622	0.561	0.656	0.501
NCI-H1944	0.312	0.344		0.275	0.254	0.197	0.214		0.226	0.272	0.439	0.335	0.331	0.319	0.301	0.5	0.488	0.454	0.414	0.359
NCI-H322M	0.516	0.461	0.468	0.517	0.593	0.264	0.261	0.27	0.292	0.318	0.503	0.534	0.541	0.532	0.482	0.529	0.526	0.455	0.467	0.524
LCLC-103H	0.498	0.506		0.535	0.481	0.403	0.511	0.447	0.601	0.576	0.418	0.438	0.531	0.403	0.423	0.759	0.771	0.824	0.79	0.783
A-427	0.553	0.582		0.551	0.574	0.646	0.718		0.708	0.729	0.336	0.286	0.236	0.197	0.169	0.591	0.569	0.6	0.524	0.352
NCI-H1355	0.43	0.314	0.299	0.35	0.38	0.702	0.526	0.673	0.817	0.794	0.435	0.327	0.311	0.308	0.298	0.798	0.754	0.737	0.638	0.541
NCI-H2170	0.391	0.472	0.291	0.365	0.371	0.621	0.482	0.582	0.794	0.968	0.836	0.676	0.717	0.749	0.578	0.882	0.793	0.832	1.02	0.743
NCI-H1793	0.335	0.274	0.29	0.404	0.491	0.381	0.374	0.472	0.419	0.48	0.355	0.226	0.252	0.247	0.193	0.52	0.244	0.419	0.319	0.177
NCI-H2087	0.249	0.27	0.247	0.2	0.197	0.745	0.963		0.963	1.2	0.52	0.335	0.213	0.274	0.13	1.04	1.04	1.03	1.13	0.298
NCI-H2342	0.52	0.541	0.515	0.474	0.491	0.318	0.323	0.299	0.35	0.348	0.717	0.589	0.569	0.64	0.669	0.489	0.44	0.623	0.53	0.625
NCI-H522	0.766	0.841	0.987	1.15	1.19	0.857	0.826	0.922	0.975	1.07	0.799	0.668	0.658	0.644	0.641	0.826	0.721	0.749	0.863	0.708
NCI-H1993	0.646	0.544	0.59	0.708	0.641	0.558	0.508	0.618	0.684	0.528	0.541	0.578	0.53	0.594	0.577	0.855	0.546	0.53	0.556	0.571

Cell Line	relative viability (QS11 + Palbociclib; first compound 0.08 µM)	relative viability (QS11 + Palbociclib; first compound 0.253 µM)	relative viability (QS11 + Palbociclib; first compound 0.8 µM)	relative viability (QS11 + Palbociclib; first compound 2.53 µM)	relative viability (QS11 + Palbociclib; first compound 8 µM)	relative viability (QS11 + Dasatinib; first compound 0.08 µM)	relative viability (QS11 + Dasatinib; first compound 0.253 µM)	relative viability (QS11 + Dasatinib; first compound 0.8 µM)	relative viability (QS11 + Dasatinib; first compound 2.53 µM)	relative viability (QS11 + Dasatinib; first compound 8 µM)	relative viability (AZ628 + OSI-027; first compound 0.08 µM)	relative viability (AZ628 + OSI-027; first compound 0.253 µM)	relative viability (AZ628 + OSI-027; first compound 0.8 µM)	relative viability (AZ628 + OSI-027; first compound 2.53 µM)	relative viability (AZ628 + OSI-027; first compound 8 µM)	relative viability (AZ628 + AZD7762; first compound 0.08 µM)	relative viability (AZ628 + AZD7762; first compound 0.253 µM)	relative viability (AZ628 + AZD7762; first compound 0.8 µM)	relative viability (AZ628 + AZD7762; first compound 2.53 µM)	relative viability (AZ628 + AZD7762; first compound 8 µM)
NCI-H1792	0.679	0.886	0.491	0.667	0.741	0.697	0.754	0.672	0.745	0.942	0.735	0.516	0.474	0.428	0.233	0.776	0.668	0.575	0.541	0.385
HOP-62	0.471	0.517	0.455	0.369	0.281	0.695	0.667	0.708	0.615	0.706	0.828	0.857	0.831	0.857	0.43	0.831	0.555	0.613	0.479	0.297
NCI-H1437	0.299	0.351	0.239	0.287	0.239	0.397	0.347	0.404	0.531	0.391	0.896	0.836	0.723	0.934	0.904	1.17	1.07	0.657	1.13	0.898
HCC-366	0.433	0.454		0.162	0.0973	0.7	0.616		0.578	0.576	0.895	0.63	0.662	0.62	0.209	0.248	0.193	0.235	0.207	0.149
NCI-H1755	0.461	0.476	0.399	0.402	0.427	0.449	0.39	0.38	0.391	0.314	0.683	0.74	0.781	0.636	0.575	0.466	0.385	0.392	0.429	0.356
NCI-H3122	0.171	0.225		0.188	0.18	0.876	0.82		0.969	0.538	0.559	0.344	0.287	0.267	0.16	0.953	0.782	0.578	0.626	0.361
ChaGo-K-1		0.955	1.02	1.02	1.07	0.41	0.556	0.518	0.655	0.618	0.575	0.525	0.496	0.556	0.388	0.935	0.821	0.805	0.853	0.663
NCI-H2085	0.474	0.509	0.402	0.433	0.475	0.222	0.263	0.277	0.292	0.255	0.913	0.754	0.803	0.667	0.332	0.997	0.925	1.04	1.01	0.566
NCI-H727	0.694	0.73	0.698	0.637	0.699	0.297	0.467	0.353	0.554	0.438	0.626	0.402	0.328	0.397	0.338	0.504			0.369	0.333
NCI-H2405	0.544	0.541	0.488	0.536	0.502	0.196	0.2	0.206	0.276	0.325	0.482	0.37	0.393	0.353	0.345	0.54	0.387	0.498	0.419	0.458
NCI-H1666	0.641	0.651	0.586	0.621	0.516	0.783	0.839	0.568	0.583	0.528	0.827	0.789	0.676	0.744	0.656	0.837	0.742	0.645	0.737	0.651
BEN	0.479	0.481	0.501	0.52	0.502	0.29	0.37	0.352	0.325	0.33	0.318	0.278	0.32	0.281	0.267	0.678	0.593	0.653	0.614	0.587
HARA	0.256	0.212	0.186	0.252	0.259	0.294	0.281		0.221	0.307	0.322	0.432	0.472	0.439	0.245	0.299	0.216	0.272	0.363	0.228
RERF-LC-KJ	1.08	0.999	0.724	0.895	0.874	0.921	0.836	0.764	0.61	0.534	0.53	0.523	0.528	0.462	0.458	0.948	0.901	1.56	1.03	0.87
NCI-H1975	0.555	0.531	0.58	0.74	0.733	0.357	0.31	0.423	0.512	0.455	0.726	0.619	0.483	0.503	0.373	0.78	0.624	0.711	0.779	0.623
EPLC-272H		0.315	0.31	0.305	0.31		0.394	0.35	0.257	0.333	0.211	0.258	0.295	0.238	0.171	0.34	0.168	0.165	0.22	0.236
